Experimental data published in patent US12269800B2, “Delivery of therapeutic alkaloid compounds” (priority 2021, dated 2025).
Values joined by “and” are separate entries in the source; they are usually repeats but may differ in a detail not shown here. Equal values may be shown once.

Assay: Hydrolysis Assay of Example A2, Condition 1 (SGF with pepsin, pH 1.5, 37° C.)
Type: physicochemical
Details: for Condition 1 Conversion (%), second value of a/b: value after the slash
[1] = SGF with pepsin pH 1.5, 37° C., 0.5 mM, time 1 min
[2] = SGF with pepsin pH 1.5, 37° C., 0.5 mM, time 5 min
[3] = SGF with pepsin pH 1.5, 37° C., 0.5 mM, time 30 min
[4] = SGF with pepsin pH 1.5, 37° C., 0.5 mM, time 1 h
[5] = SGF with pepsin pH 1.5, 37° C., 0.5 mM, time 4 h
[6] = SGF with pepsin pH 1.5, 37° C., 0.5 mM, time 24 h
[7] = SGF with pepsin pH 1.5, 37° C., time 30 min
[8] = SGF with pepsin pH 1.5, 37° C., time 1 h
[9] = SGF with pepsin pH 1.5, 37° C., time 4 h
[10] = SGF with pepsin pH 1.5, 37° C., time 24 h

| Structure (SMILES) | Condition 1 Conversion (%) [1] [%] | Condition 1 Conversion (%) [2] [%] | Condition 1 Conversion (%) [3] [%] | Condition 1 Conversion (%) [4] [%] | Condition 1 Conversion (%) [5] [%] | Condition 1 Conversion (%) [6] [%] | Condition 1 Conversion (%), second value of a/b (SGF with pepsin pH 1.5, 37° C., time 1 min) [%] | Condition 1 Conversion (%), second value of a/b (SGF with pepsin pH 1.5, 37° C., time 5 min) [%] | Condition 1 Conversion (%), second value of a/b [7] [%] | Condition 1 Conversion (%), second value of a/b [8] [%] | Condition 1 Conversion (%), second value of a/b [9] [%] | Condition 1 Conversion (%), second value of a/b [10] [%] | Condition 1 Conversion (%) (pH 1.5) |
| --- | --- | --- | --- | --- | --- | --- | --- | --- | --- | --- | --- | --- | --- |
| COc1ccc([C@@]23CCN(C)[C@@H]2CC2(CC3)OCCS2)cc1OC (stereo partly shown) [Compound 070] | 0 | 0 | 0 | 0 | 0 | 0 | – | – | – | – | – | – | – |
| COc1ccc([C@]23CCN(C)[C@H]2CC2(CC3)OC[C@H](c3cccnc3)O2)cc1OC (stereo partly drawn) [Compound 109, (3′aS,7′aS)-3′a-(3,4-dimethoxyphenyl)-1′-methyl-4-(3-pyridyl)spiro[1,3-dioxolane-2,6′-2,3,4,5,7,7a-hexahydroindole]] | 0 | 0 | 0 | 0 | 0 | 0 | – | – | – | – | – | – | – |
| COc1ccc([C@]23CCN(C)[C@H]2CC2(CC3)OCC(C)O2)cc1OC (stereo partly drawn) [Compound 211, (3′aS,7′aS)-3′a-(3,4-dimethoxyphenyl)-1′,4-dimethyl-spiro[1,3-dioxolane-2,6′-2,3,4,5,7,7a-hexahydroindole]] | 0 | 0 | 0 | 0 | 0 | 0 | – | – | – | – | – | – | – |
| COc1ccc([C@]23CCN(C)[C@H]2CC2(CC3)OC[C@@H](c3ccccc3)O2)cc1OC (stereo partly drawn) [Compound 081, (3′aS,4R,7′aS)-3′a-(3,4-dimethoxyphenyl)-1′-methyl-4-phenyl-spiro[1,3-dioxolane-2,6′-2,3,4,5,7,7a-hexahydroindole]] | 0 | 0 | 0 | 0 | 0 | 0 | – | – | – | – | – | – | – |
| COc1ccc([C@@]23CC/C(=N/OC(C)(C)OC)C[C@@H]2N(C)CC3)cc1OC [Compound 219, (Z,3aS,7aS)-3a-(3,4-dimethoxyphenyl)-N-(1-methoxy-1-methyl-ethoxy)-1-methyl-2,3,4,5,7,7a-hexahydroindol-6-imine] | 100 | 100 | 0 | 0 | 0 | 0 | 0 | 0 | 100 | 100 | 100 | 100 | – |
| COc1cccc(C2COC3(CC[C@@]4(c5ccc(OC)c(OC)c5)CCN(C)[C@H]4C3)O2)c1 (stereo partly drawn) [Compound 111, (3′aS,7′aS)-3′a-(3,4-dimethoxyphenyl)-4-(3-methoxyphenyl)-1′-methyl-spiro[1,3-dioxolane-2,6′-2,3,4,5,7,7a-hexahydroindole]] | 0 | 0 | 0 | 0 | 0 | 0 | – | – | – | – | – | – | – |
| COc1ccc([C@]23CCN(C)[C@H]2CC2(CC3)OCC(COCc3ccccc3)O2)cc1OC (stereo partly shown) [Compound 215] | 0 | 0 | 6.1 | 15.2 | 25.8 | 46.8 | – | – | – | – | – | – | – |
| COc1ccc([C@]23CCN(C)[C@H]2CC2(CC3)OCC(c3ccncc3)O2)cc1OC (stereo partly drawn) [Compound 110, (3′aS,7′aS)-3′a-(3,4-dimethoxyphenyl)-1′-methyl-4-(4-pyridyl)spiro[1,3-dioxolane-2,6′-2,3,4,5,7,7a-hexahydroindole]] | 0 | 0 | 0 | 0 | 0 | 0 | – | – | – | – | – | – | – |
| COc1ccc([C@@]23CCC(=NNCCc4ccccc4)C[C@@H]2N(C)CC3)cc1OC [Compound 159, N-[[(3aS,7aS)-3a-(3,4-dimethoxyphenyl)-1-methyl-2,3,4,5,7,7a-hexahydroindol-6-ylidene]amino]-2-phenyl-ethanamine] | – | – | – | – | – | – | – | – | – | – | – | – | 77% and 91% and 100% (2×) |
| C=CC1OC2(CC[C@@]3(c4ccc(OC)c(OC)c4)CCN(C)[C@H]3C2)OC1C=C (stereo partly drawn) [Compound 213, (3′aS,7′aS)-3′a-(3,4-dimethoxyphenyl)-1′-methyl-4,5-divinyl-spiro[1,3-dioxolane-2,6′-2,3,4,5,7,7a-hexahydroindole]] | 0 | 0 | 0 | 0 | 0 | 0 | – | – | – | – | – | – | – |
| COc1ccc([C@]23CCN(C)[C@H]2CC2(CC3)OCCS2)cc1OC (stereo partly shown) [Compound 69] | 0 | 0 | 0 | 0 | 0 | 0 | – | – | – | – | – | – | – |
| COc1ccc([C@@]23CCC(=NNC(N)=O)C[C@@H]2N(C)CC3)cc1OC [Compound 197, [[(3aS,7aS)-3a-(3,4-dimethoxyphenyl)-1-methyl-2,3,4,5,7,7a-hexahydroindol-6-ylidene]amino]urea] | – | – | – | – | – | – | – | – | – | – | – | – | 0% |
| COc1ccc([C@@]23CCC(=NOC4CCCCO4)C[C@@H]2N(C)CC3)cc1OC (stereo partly drawn) [Compound 206, (3aS,7aS)-3a-(3,4-dimethoxyphenyl)-1-methyl-N-tetrahydropyran-2-yloxy-2,3,4,5,7,7a-hexahydroindol-6-imine] | – | – | 1.41 | 7.83 | 0 | 0 | – | – | 0 | 2.57 | 77.75 | 100 | – |
| COc1ccc([C@@]23CCC(=NOCC(=O)OC(C)(C)C)C[C@@H]2N(C)CC3)cc1OC [Compound 202, tert-butyl 2-[[(3aS,7aS)-3a-(3,4-dimethoxyphenyl)-1-methyl-2,3,4,5,7,7a-hexahydroindol-6-ylidene]amino]oxyacetate] | – | – | – | 1.12 | 3.01 | 64.4 | – | – | – | 0 | 6.42 | 6.42 | – |
| COc1ccc([C@]23CCN(C)[C@H]2CC2(CC3)OCC(c3cccc([N+](=O)[O-])c3)O2)cc1OC (stereo partly drawn) [Compound 113, (3′aS,7′aS)-3′a-(3,4-dimethoxyphenyl)-1′-methyl-4-(3-nitrophenyl)spiro[1,3-dioxolane-2,6′-2,3,4,5,7,7a-hexahydroindole]] | 0 | 0 | 0 | 0 | 0 | 0 | – | – | – | – | – | – | – |
